Data as given in patent US4362870A, “Selective opioid receptor alkylating agents” (priority 1981, dated 1982).
Where two headings read alike, the source gives them in different places.

Experiments:
[1] = test system: electrically stimulated guinea pig ileal longitudinal muscle strip; assay: Guinea pig ileum: morphine IC50 ratio before and after exposure to the test compound (Examples V-XIV); type: cell-based; settings: 30 min exposure, 20 washes
Protocol: Details of the assay are found in Rang, Br. J. PHarmacol., 22, 356 (1964).
of the electrically stimulated guinea pig ileal longitudinal muscle strip
(treated) exposure (30 min) of the ileal preparation to the test compound
(2 × 10^-8 M) followed by 20 washes are expressed as a ratio, […]

[2] = test system: electrically stimulated guinea pig ileal longitudinal muscle; assay: cells; type: cell-based; settings: for IC50 Ratio FNA/Control: agonist IC50 after FNA (2 × 10^-8, 30 min, 20 washes) / control
effects of morphine [3] = assay: Duration of inhibitory effect on morphine (species not given); type: in vivo
Excerpt: (§1) The vertical bars represent 95% confidence intervals of the ED50 values.

[4] = test system: β-endorphin-induced stimulation of food intake; settings: prior report; cited from earlier work
[5] = background statement; cited from earlier work
morphine analgesia = assay: Duration of inhibitory effect on morphine analgesia, mouse; type: in vivo; settings: HCl salt; 4.8 nmol/mouse intracebroventricular
Protocol: At 4.8 nmol/mouse (intracebroventricular) or at 5 mg/kg i.p. in the rat, the antagonist effects of FNA (as its HCl salt) lasted at least three days (FIG. 1). The vertical bars represent 95% confidence intervals of the ED50 values.

effects of morphine [6] = assay: Duration of inhibitory effect on morphine, rat; type: in vivo; settings: HCl salt; 5 mg/kg i.p. in the rat
Excerpt: as §1

[7] = test system: analgesic response of mice; assay: Analgesic response of mice to FNA; type: in vivo, mouse
Protocol: FIG. 2 is a graphic representation of the analgesic response of mice to FNA.
The analgesic response of mice to FNA was tested.

[8] = Toxic effects at a single dose; type: in vivo; settings: single dose which completely blocks morphine for at least three days

CC(=O)/C=C/C(=O)N[C@@H]1CC[C@@]2(O)[C@H]3Cc4ccc(O)c5c4[C@@]2(CCN3CC2CC2)[C@H]1O5 [IX]
IC50 Ratio, morphine IC50 (treated)/morphine IC50 (control) ([1]; test compound 2 × 10^-8 M): 6.4

C=CCN1CC[C@]23c4c5ccc(O)c4O[C@H]2[C@@H](O)C=C[C@H]3[C@H]1C5 [Nalorphine]
IC50 ([2]; Cavia porcellus, 0.5 h, after FNA (2 × 10^-8) incubated 30 minutes, washed 20 times, read-out: IC50 After FNA): 25.2 nM
IC50 ([2]; Cavia porcellus, control, before FNA, guinea pig ileum, read-out: IC50 Control): 28.1 nM
IC50 Ratio FNA/Control [2]: 0.9

O=C(CI)N[C@@H]1CC[C@@]2(O)[C@H]3Cc4ccc(O)c5c4[C@@]2(CCN3CC2CC2)[C@H]1O5 [XII]
IC50 Ratio, morphine IC50 (treated)/morphine IC50 (control) ([1]; test compound 10^-6 M): 25.6

Oc1ccc2c3c1O[C@H]1[C@H](N=C=S)CC[C@@]4(O)[C@@H](C2)N(CC2CC2)CC[C@]314 [XIII]
IC50 Ratio, morphine IC50 (treated)/morphine IC50 (control) ([1]; test compound 2 × 10^-8 M): 2.3

CCCOC(=O)/C=C/C(=O)N[C@@H]1CC[C@@]2(O)[C@H]3Cc4ccc(O)c5c4[C@@]2(CCN3CC2CC2)[C@H]1O5 [VI]
IC50 Ratio, morphine IC50 (treated)/morphine IC50 (control) ([1]; test compound 2 × 10^-8 M): 4.4

O=C(/C=C/C(=O)OCCc1ccccc1)N[C@@H]1CC[C@@]2(O)[C@H]3Cc4ccc(O)c5c4[C@@]2(CCN3CC2CC2)[C@H]1O5 [VIII]
IC50 Ratio, morphine IC50 (treated)/morphine IC50 (control) ([1]; test compound 2 × 10^-8 M): 12.8

CCOC(=O)/C=C/C(=O)N[C@@H]1CC[C@@]2(O)[C@H]3Cc4ccc(O)c5c4[C@@]2(CCN3CC2CC2)[C@H]1O5 [V]
IC50 Ratio, morphine IC50 (treated)/morphine IC50 (control) ([1]; test compound 2 × 10^-8 M): 2.8

C=CCN1CC[C@]23c4c5ccc(O)c4O[C@H]2[C@H](NC(=O)/C=C/C(=O)OC)CC[C@@]3(O)[C@H]1C5 [XIV]
IC50 Ratio, morphine IC50 (treated)/morphine IC50 (control) ([1]; test compound 10^-7 M): 6.4

C=C(Cl)C(=O)N[C@@H]1CC[C@@]2(O)[C@H]3Cc4ccc(O)c5c4[C@@]2(CCN3CC2CC2)[C@H]1O5 [XI]
IC50 Ratio, morphine IC50 (treated)/morphine IC50 (control) ([1]; test compound 2 × 10^-8 M): 8.2

C=CCN1CC[C@]23c4c5ccc(O)c4O[C@H]2C(=O)CC[C@@]3(O)[C@H]1C5 [naloxone, reference compound]
antagonistic effect (effects of morphine [3]; tested 2 hours after administration): its effect had already dissipated
block of β-endorphin-induced stimulation of food intake [4]: blocked

CC(C)C[C@H](NC(=O)[C@H](Cc1ccccc1)NC(=O)CNC(=O)CNC(=O)[C@@H](N)Cc1ccc(O)cc1)C(=O)O [enkephalin]
hypotensive action [5]: potent hypotensive agents

CSCC[C@H](NC(=O)[C@H](Cc1ccccc1)NC(=O)CNC(=O)[C@@H](C)NC(=O)[C@@H](N)Cc1ccc(O)cc1)C(N)=O [D-Ala^2 -- Met-- enkephlin- Amide]
IC50 ([2]; after FNA (2 × 10^-8) incubated 30 minutes, washed 20 times, read-out: IC50 After FNA): 29.1 nM
IC50 Ratio FNA/Control [2]: 6.9
IC50 ([2]; control, before FNA, guinea pig ileum, read-out: IC50 Control): 4.2 nM

O=C(/C=C/C(=O)OCc1ccccc1)N[C@@H]1CC[C@@]2(O)[C@H]3Cc4ccc(O)c5c4[C@@]2(CCN3CC2CC2)[C@H]1O5 [VII]
IC50 Ratio, morphine IC50 (treated)/morphine IC50 (control) ([1]; test compound 2 × 10^-8 M): 3.4

COC(=O)/C=C/C(=O)N[C@@H]1CC[C@@]2(O)[C@H]3Cc4ccc(O)c5c4[C@@]2(CCN3CC2CC2)[C@H]1O5 [FNA, fumarnaltrexamine]
inhibition of agonist effects of nalorphine or pentazocine ([2]; FNA 2×10^-8 M, 30 minutes): did not inhibit the agonist effects of nalorphine or pentazocine
inhibition of response to morphine and enkephalin ([2]; FNA 2×10^-8 M, 30 minutes): inhibited irreversibly
block of agonist effects of morphine, enkephalin, pentazocine and nalorphine (selectivity) ([2]; electrically stimulated guinea pig ileum, summary statement in description): irreversibly block the agonist effects of morphine or enkephalin but not the agonist effects of pentazocine or nalorphine
duration of antagonist effects (morphine analgesia): at least three
duration of antagonist effects (effects of morphine [6]): at least three
duration of complete block of the effects of morphine (effects of morphine [3]; single dose): at least three
analgesia [7]: reversible analgesia
reversal of analgesia by its own antagonistic properties [7]: not reversed by its own antagonistic properties
toxic effects [8]: no toxic effects

C=CC(=O)N[C@@H]1CC[C@@]2(O)[C@H]3Cc4ccc(O)c5c4[C@@]2(CCN3CC2CC2)[C@H]1O5 [X]
IC50 Ratio, morphine IC50 (treated)/morphine IC50 (control) ([1]; test compound 2 × 10^-8 M): 1.9
